Results on three compounds are retold here after patent publication US20240197700A1, “Methods and Compositions for Treating Lysosomal Storage Disorders” (Sanford Health, priority 2021, published 2024).

“Also recorded” adds a separate entry of the source.

Holding throughout (type): in vivo, mouse
Assay [1] concerns Cln3^Δex7/8 mice. As to the kind of experiment: SubC burden (immunohistochemistry) in brain of Cln3^Δex7/8 mice.
In a further assay the test system is Cln2^R207X mice. As to the kind of experiment: Astroglial activation (GFAP) in brain of Cln2^R207X mice. As to the method: (§1) Specific experimental details are included in figure legends. In general, after collection and preparation, MEFs and PNCs were dosed with vehicle or AF38469 (40 nM, 400 nM. or 4 μM) on DIV3 and DIV5. On DIV7, cells were treated with the following dyes: Hoechst 33342 (1:1000 dilution), LysoTrackerT™ Red DND-99 (1:10,000 dilution), fixed, and imaged. Mice were given vehicle or AF38469 (78.125 μg/ml, 3.125 μg/ml, 0.3125 μg/ml or 0.03125 μg/ml equating approximately to 250 μg/mouse/day, 10 μg/mouse/day, 1 μg/mouse/day, and […], respectively, given a mouse's daily water intake of approximately 3.2 ml per day) in drinking water beginning at wean. Body weight was measured bi-weekly, and a force actimeter test was performed on Cln2^R207X mice at 10 weeks of age. Body weight was measured every month for Cln3^Δex7/8 mice. At 11 and 16 weeks of age, respectively, Cln2^R207X and Cln3^Δex7/8 mice along with age matched wild type control mice were CO2 euthanized and intracardially perfused with PBS. Brains were collected and placed on a 1 mm sagittal brain block. Brains were sliced at the midline and 3 mm right of the midline. One hemisphere was fixed in 4% PFA and sectioned at 50 microns on a vibratome. Immunohistochemistry was performed on free-floating sections. For mitochondrial ATP synthase subunit C (SubC), glial fibrillary acidic protein (GFAP), and cluster of differentiation 68 (CD68) immunolabeling, primary antibodies included anti-SubC (Abcam, ab181243; 1:1000), anti-GFAP (Dako, Z0334; 1:5000), anti-CD68 (AbD Serotec, MCA1957; 1:2000), and secondary antibodies included anti-rabbit biotinylated (Vector Labs, BA-1000 1:1000) and anti-rat (Vector Labs, BA-9400 1:1000). Coverslips were mounted on slides using antifade-mounting media and were stored in the dark before imaging. Sections were imaged and analyzed using an Aperio Digital Pathology Slide Scanner (AT2) and associated software. Images were extracted from S1BF of the somatosensory cortex and the VPM/VPL of the thalamus, with multiple images taken of multiple tissues from each animal.
Short-term chronic treatment with AF38469 impacts glial activation in Cln2^R207X mice. Beginning at wean, wild type and Cln2^R207X mice were treated with vehicle (0.2408% DMSO) or AF38469 (0.03125 μg/ml, 0.3125 μg/ml, 3.125 μg/ml, 78.125 μg/ml) continuously through the drinking water continuing until sacrifice at 11 weeks. Upon sacrifice, one hemisphere of brain was sectioned at 50 microns on a vibratome; DAB staining immunohistochemistry was then performed using anti-GFAP (Dako, Z0334; 1:5000), anti-CD68 (AbD Serotec, MCA1957; 1:2000), anti-rabbit biotinylated (Vector Labs, BA-1000 1:1000), and anti-rat (Vector Labs, BA-9400 1:1000). Sections were imaged and analyzed using an Aperio Digital Pathology Slide Scanner (AT2) and associated software. Images were extracted from S1BF of the somatosensory cortex and the VPM/VPL of the thalamus. Percent area of immunoreactivity were quantified using a threshold analysis in ImageJ™. Statistical analyses were performed using GraphPad Prism™ (v8.4.3; San Diego, CA). […] Increasing concentrations of AF38469 and corresponding genotypes are shown along the x-axis. Nested one-way ANOVA. Mean±S.E.M. Dunnett's multiple comparisons test compared to the mutant vehicle treated group. *p<0.05, **p<0.01, ***p<0.001, ****p<0.0001. Reactive gliosis including activated microglia and reactive astrocytes is one of the histopathologies associated with neurodegenerative diseases such as NCLs.

Assay [2] has as its system Cln3^Δex7/8 mice. Description: SubC burden (immunohistochemistry) in brain of Cln3^Δex7/8 mice. As to the method:
as §1
Short-term chronic treatment with AF38469 reduces storage material burden in Cln2^R207X and Cln3^Δex7/8 mice. Beginning at wean, wild type and Cln2^R207X mice were treated with vehicle (0.2408% DMSO) or AF38469 (0.03125 μg/ml, 0.3125 μg/ml, 3.125 μg/ml, 78.125 μg/ml) continuously through the drinking water continuing until sacrifice at 11 weeks. Beginning at wean, wild type and Cln3^Δex7/8 mice were treated with vehicle (0.2408% DMSO) or AF38469 (0.03125 μg/ml, 0.3125 μg/ml, 3.125 μg/ml, 78.125 μg/ml) continuously through the drinking water until sacrifice at 16 weeks. Upon sacrifice, one hemisphere of brain was sectioned at 50 microns on a vibratome; DAB staining immunohistochemistry was then performed using anti-SubC (Abcam, ab181243) anti-rabbit biotinylated (Vector Labs, BA-1000). Sections were imaged and analyzed using an Aperio Digital Pathology Slide Scanner (AT2) and associated software. Images were extracted from S1BF of the somatosensory cortex and the VPM/VPL of the thalamus, key brain regions for Batten disease pathology. Percent area of immunoreactivity were quantified using a threshold analysis in ImageJ™. Statistical analyses were performed using GraphPad Prism™ (v8.4.3; San Diego, CA). […] Increasing concentrations of AF38469 and corresponding genotypes are shown along the x-axis. Nested one-way ANOVA. […]
This is another data set of the same source.

`Cc1cccc(NC(=O)c2ccc(C(F)(F)F)cc2C(=O)O)n1` [AF38469, 2-((6-methylpyridin-2-yl)carbamoyl)-5-(trifluoromethyl)benzoic acid]: in the assay with Cln3^Δex7/8 mice [1] (overall statement, short term treatment, Cln3^Δex7/8), the SubC accumulation entry is “reduces”. Also, the “astroglial activation (GFAP)” value in the assay with Cln2^R207X mice (3.125 μg/ml, 78.125 μg/ml, VPM/VPL of the thalamus) is reported as “did not impact”; with Cln2^R207X mice (3.125 μg/ml, somatosensory cortex), “significantly increased”; with Cln2^R207X mice (78.125 μg/ml, somatosensory cortex), “had no impact”; with Cln2^R207X mice (lower doses 0.03125 μg/ml, 0.3125 μg/ml) it was “had no significant impact; also recorded: did not significantly impact”. Further, in the assay with Cln2^R207X mice (higher doses, summary statement), the GFAP reactivity entry was “increased or had no impact”. The “Subunit C burden” value with Cln3^Δex7/8 mice [2] (0.03125 μg/ml, 0.3125 μg/ml in drinking water, somatosensory cortex and VPM/VPL of the thalamus, 16 weeks) is on record as “significantly decreased”; in the assay on Cln3^Δex7/8 mice [2] (3.125 μg/ml in drinking water, somatosensory cortex and VPM/VPL of the thalamus, 16 weeks), “significantly decreased”; with Cln3^Δex7/8 mice [2] (3.125 μg/ml, 78.125 μg/ml in drinking water, somatosensory cortex, 16 weeks) it was “significantly decreased”.
`CC[C@H](C)[C@H](N)C(=O)NCCN1CCOCC1` [LM11A-31, N-[2-(morpholin-4-yl)ethyl]-L-isoleucinamide]: the SubC burden result with Cln3^Δex7/8 mice [2] (LM11A-31 0.6 mg/mL, VPM/VPL of the thalamus) is recorded as “decrease; also recorded: decreasing trend”. Also, the “Subunit C burden” value in the assay with Cln3^Δex7/8 mice [2] (LM11A-31 0.6 mg/mL, somatosensory cortex (S1BF)) is “increase; also recorded: did not significantly decreased”.
semaglutide: the SubC burden entry is “had no significant effect” with Cln3^Δex7/8 mice [1] (semaglutide 2.571 μg/mouse s.c., CA3 of the hippocampus); “had no significant effect” in the assay on Cln3^Δex7/8 mice [1] (semaglutide 2.571 μg/mouse s.c., VPM/VPL of the thalamus); “significantly reduced” in the assay on Cln3^Δex7/8 mice [1] (semaglutide 25.71 μg/mouse s.c., CA3 of the hippocampus); “significantly elevated” in the assay on Cln3^Δex7/8 mice [1] (semaglutide 25.71 μg/mouse s.c., VPM/VPL of the thalamus). For the same compound, the “accumulation of mitochondrial ATP synthase subunit C (SubC)” value in the assay with Cln3^Δex7/8 mice [1] (semaglutide 2.571 μg/mouse, 25.71 μg/mouse s.c., S1BF of the somatosensory cortex) is recorded as “had no significant effect”.
